Assay results from patent US20230279233A1, “ATROROSINS AS FOOD COLORS” (Chromologics ApS, priority 2020, published 2023).
Several values for one entry are separate records, joined by “and”; a condition that tells them apart may be missing. Equal entries are not always repeated. Where two headings read alike, the source gives them in different places.

Assays:
[1] = Temperature stability at 60° C. and 80° C. in McIlvaine buffer pH 5, absorption maxima
Experimental: Buffer and atrorosin was mixed for 5 minutes before the solutions were subjected heating in an incubator at 60° C. and 80° C. to colorimetric analysis using spectrophotometer. The absorption maxima at 425 nm and 490 nm were determined in a microtiter plate with a 0.45 cm cell length with buffer as blank. In comparison to the data in Table 3, the absorption spectrum of betanin is determined as above. […] In comparison to Table 5, the absorption spectrum of betanin is determined as above.

[2] = background, literature; cited from earlier work
[3] = pH stability in McIlvaine buffer pH 2.2-7.2, absorption maxima by spectrophotometer; assay type: physicochemical
Experimental: In comparison to the pH data for Atrorosin-E of Table 1, the absorption spectrum of carminic acid is determined as above. Its absorption maxima are 495 nm, 525 nm, 565 nm. The pH stability data for carminic acid is shown below in Table 2: […]

TA 98 = assay: mini-Ames (AMES MPF) genotoxicity; assay type: cell-based
Experimental: Resulting powder from example 2 was sent to Cyprotox to asses for genotoxicity in a mini-Ames experiment. 43.2 mg of atrorosin was sent to Cyprotox. Mini-Ames test were conducted under the guidelines of OECD.
In comparison to the atrorosin tested above, similar 46.4 mg of carminic acid was also sent to Cyprotox to assess for genotoxicity.

[4] = Pharmacokinetic profile in rats, IV and PO; assay type: in vivo; conditions: rat, IV 1 mg/kg; for Cmax: read-out: C0/Cmax
Experimental: Resulting powder from example 2 was sent to Evotec to asses for the pharmacokinetic profile of atrorosin. 6 rats were used, 3 rats for IV injection of atrorosin and 3 rats for PO. The rats were injected or given through mouth gauge 2 mg/kg, and blood samples were taken at regular intervals.
In comparison to example 10, similar carminic acid was also sent to Evotec to assess the pharmacokinetic profile.

[5] = pH stability in McIlvaine buffer pH 2.2-7.2, absorption maxima by spectrophotometer; assay type: physicochemical; remark: listed apart in the source
[6] = Pharmacokinetic profile in rats, IV and PO; assay type: in vivo; conditions: rat, IV 1 mg/kg

With O=C(O)C1=C/C(=C/C=[N+]2/c3cc(O)c(OC4OC(CO)[C@@H](O)C(O)C4O)cc3CC2C(=O)[O-])CC(C(=O)O)N1 (stereo in doubt) [betanin, reference compound] the “heat stability (in words)” value ([1]; 60° C. over 24 hours) was “degrades significantly”, the “Absorption at 530 nm” value ([1]; 60° C., 1 H) was 0.26 and the “Absorption at 530 nm” value ([1]; 60° C., 2 H) was 0.2. The “Absorption at 530 nm” value ([1]; 60° C., 3 H) was 0.17, the “Absorption at 530 nm” value ([1]; 60° C., 24 H) was 0.05 and the “Absorption at 530 nm” value ([1]; 60° C., T0: Start) was 0.29. For the same compound, the “heat stability (in words)” value ([1]; 80° C. over 3 hours) was “degrades significantly”, the “Absorption at 530 nm” value ([1]; 80° C., 1 H) was 0.07 and the “Absorption at 530 nm” value ([1]; 80° C., 2 H) was 0.05. For the same compound, the “Absorption at 530 nm” value ([1]; 80° C., 3 H) was 0.03, the “Absorption at 530 nm” value ([1]; 80° C., 15 min) was 0.19 and the “Absorption at 530 nm” value ([1]; 80° C., T0: Start) was 0.28. For the same compound, the “temperature stability (in words)” value [2] was “lack of stability over 40 °C”.

With Cc1c(C(=O)O)c(O)cc2c1C(=O)c1c(O)c([C@@H]3O[C@H](CO)[C@@H](O)[C@H](O)[C@H]3O)c(O)c(O)c1C2=O [carminic acid, reference compound] the “Absorption at 495 nm” value ([3]; pH 2.2) was 0.859, the “Absorption at 525 nm” value ([3]; pH 2.2) was 0.88 and the “Absorption at 495 nm” value ([3]; pH 3.5) was 1.289. The “Absorption at 525 nm” value ([3]; pH 3.5) was 1.404, the “Absorption at 495 nm” value ([3]; pH 5) was 1.561 and the “Absorption at 525 nm” value ([3]; pH 7.2) was 2.171. The “Absorption at 565 nm” value ([3]; pH 7.2) was 2.23, the “Fold increase (over baseline)” value (TA 98; TA 98 +S9, 62.5 μg/ml) was 0.42 and the “mean # pos. Wells” value (TA 98; TA 98 +S9, 62.5 μg/ml) was 1.00. For the same compound, the “Fold increase (over baseline)” value (TA 98; TA 98 +S9, 125 μg/ml) was 0.28, the “mean # pos. Wells” value (TA 98; TA 98 +S9, 125 μg/ml) was 0.67 and the “Fold increase (over baseline)” value (TA 98; TA 98 +S9, 250 μg/ml) was 0.14. For the same compound, the “mean # pos. Wells” value (TA 98; TA 98 +S9, 250 μg/ml) was 0.33, the “Fold increase (over baseline)” value (TA 98; TA 98 +S9, 500 μg/ml) was 0.00 and the “mean # pos. Wells” value (TA 98; TA 98 +S9, 500 μg/ml) was 0.00. For the same compound, the “Fold increase (over baseline)” value (TA 98; TA 98 +S9, 1000 μg/ml) was 0.00, the “mean # pos. Wells” value (TA 98; TA 98 +S9, 1000 μg/ml) was 0.00 and the “Fold increase (over baseline)” value (TA 98; TA 98 +S9, 2000 μg/ml) was 0.14. For the same compound, the “mean # pos. Wells” value (TA 98; TA 98 +S9, 2000 μg/ml) was 0.33, the “Fold increase (over baseline)” value (TA 98; TA 98 −S9, 62.5 μg/ml) was 0.25 and the “mean # pos. Wells” value (TA 98; TA 98 −S9, 62.5 μg/ml) was 0.33. The “Fold increase (over baseline)” value (TA 98; TA 98 −S9, 125 μg/ml) was 0.51, the “mean # pos. Wells” value (TA 98; TA 98 −S9, 125 μg/ml) was 0.67 and the “Fold increase (over baseline)” value (TA 98; TA 98 −S9, 250 μg/ml) was 0.25. The “mean # pos. Wells” value (TA 98; TA 98 −S9, 250 μg/ml) was 0.33, the “Fold increase (over baseline)” value (TA 98; TA 98 −S9, 500 μg/ml) was 0.25 and the “mean # pos. Wells” value (TA 98; TA 98 −S9, 500 μg/ml) was 0.33. The “Fold increase (over baseline)” value (TA 98; TA 98 −S9, 1000 μg/ml) was 0.00, the “mean # pos. Wells” value (TA 98; TA 98 −S9, 1000 μg/ml) was 0.00 and the “Fold increase (over baseline)” value (TA 98; TA 98 −S9, 2000 μg/ml) was 0.00. The “mean # pos. Wells” value (TA 98; TA 98 −S9, 2000 μg/ml) was 0.00, the “genotoxic effects (in words)” value (TA 98; mini-Ames study) was “do not exert any genotoxic effects” and the C0/Cmax ([4]; Mean) was 8213 ng/mL. The Clast ([4]; Mean) was 13.4 ng/mL, the MRT ([4]; Mean) was 3.5 h and the Vdss ([4]; Mean) was 0.3 L/kg. For the same compound, the t½ ([4]; Mean) was 3.5 ± 0.2 h, the Cmax ([4]; Mean) was 16.7 µM and the AUCinf ([4]; individual rats 1-3, 1 mg/kg) was 11497 ng · hr/mL and 12597 ng · hr/mL and 13408 ng · hr/mL and 23350 nM · hr and 25583 nM · hr and 27230 nM · hr. For the same compound, the C0/Cmax ([4]; individual rats 1-3, 1 mg/kg) was 7095 ng/mL and 6542 ng/mL and 11003 ng/mL, the CL/CL_F ([4]; individual rats 1-3, 1 mg/kg) was 1.4 mL/min/kg and 1.3 mL/min/kg and 1.2 mL/min/kg and the Clast ([4]; individual rats 1-3, 1 mg/kg) was 12.3 ng/mL and 12.7 ng/mL and 15.3 ng/mL. The MRT ([4]; individual rats 1-3, 1 mg/kg) was 3.2 h and 3.3 h and 3.9 h, the t½ ([4]; individual rats 1-3, 1 mg/kg) was 3.7 h and 3.4 h (2×) and the Cmax ([4]; individual rats 1-3, 1 mg/kg) was 14.4 µM and 13.3 µM and 22.3 µM. For the same compound, the “Absorption at 565 nm” value ([5]; pH 2.2) was 0.771, the “Absorption at 565 nm” value ([5]; pH 3.5) was 1.365 and the “Absorption at 525 nm” value ([5]; pH 5) was 1.834. The “Absorption at 565 nm” value ([5]; pH 5) was 1.852, the “Absorption at 495 nm” value ([5]; pH 7.2) was 1.625 and the “CL/CL_F (plasma clearance)” value ([6]; Mean) was 1.3 ± 0.1 mL/min/kg. For the same compound, the Tlast ([6]; individual rats 1-3) was 24 h, the Vdss ([6]; individual rats 1-3) was 0.3 L/kg and the AUC0-t ([6]; individual rats 1-3, 1 mg/kg) was 11431 ng · hr/mL and 12535 ng · hr/mL and 13332 ng · hr/mL and 23216 nM · hr and 25457 nM · hr and 27076 nM · hr. The “temperature stability (in words)” value [2] was “good temperature stability”.
